Ten molecules from ChEMBL document CHEMBL1201862, “PubChem BioAssay data set” (2004) can be followed below.

Common to all, as to test: NCI-60 cell line screen, 48 h
Experiment [1] has as its system 786-0.
The test system of experiment [2] is A549.
In experiment [3] the test system is CAKI-1.
Experiment [4] concerns EKVX.
The test system of experiment [5] is HOP-62.
Experiment [6] has as its system HT-29.
In experiment [7] the test system is IGROV-1.
Experiment [8] deals with Malme-3M.
The test system of experiment [9] is NCI-H23.
In experiment [10] the test system is NCI-H460.
The subject of experiment [11] is NCI/ADR-RES.
In experiment [12] the test system is OVCAR-8.
Experiment [13] concerns SF-539.
Experiment [14] has as its system SK-MEL-28.
In experiment [15] the test system is SN12C.
The test system of experiment [16] is SNB-19.
The subject of experiment [17] is SNB-75.
Experiment [18] has as its system U-251.
In experiment [19] the test system is UACC-257.
Experiment [20] concerns UACC-62.

Structures are written as SMILES.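 Growth conditions: 96-well plates. Treatment: test compound, 48 hours, 5 concentrations. Analysis: linear interpolation between bracketing concentrations; unreached endpoints set to highest concentration. GI50 = concentration required for 50% inhibition of growth.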 Active and inactive are the calls of the source. No stated cut-off is given here; in the data, active = GI50 up to about 1.1 µM and inactive = higher.

In the case of `NS(=O)(=O)c1ccc(NNc2c3ccccc3nc3c(C(=O)Nc4ccc(S(=O)(=O)Nc5ncccn5)cc4)cccc23)cc1`, the GI50 in [1] was > 25 µM (inactive); in [2] it was > 25 µM (inactive); in [3], > 25 µM (inactive); in experiment [4], > 25 µM (inactive); in experiment [5], > 25 µM (inactive); in experiment [6], 10.2 µM (inactive). Besides, the GI50 in experiment [7], in [8], in [9], in experiment [10], in experiment [11] and in [12] was > 25 µM (inactive) throughout. The GI50 was > 25 µM (inactive) in experiment [13]; 10.1 µM (inactive) in experiment [14]; > 25 µM (inactive) in [15]; > 25 µM (inactive) in experiment [16]; 20.2 µM (inactive) in experiment [17]; > 25 µM (inactive) in experiment [18]. For the same molecule, the GI50 in [19] and in experiment [20] was > 25 µM (inactive) each time.

As to `Cc1nc2nnc(CCCCCCCCc3nnc4nc(C)[nH]n34)n2[nH]1`, the GI50 in experiment [1], in experiment [2], in [3], in [4], in experiment [5] and in experiment [6] was > 100 µM (inactive) each time. In addition, the GI50 in [7], in experiment [8], in experiment [9], in experiment [10], in [11] and in experiment [12] was > 100 µM (inactive) each time. The GI50 in [13], in experiment [14], in experiment [15], in [16], in experiment [17] and in experiment [18] was > 100 µM (inactive) each time. Also, in experiment [19], the GI50 is > 100 µM (inactive).

For `Cc1cc(O)cc(O)c1/N=N/c1ccc([N+](=O)[O-])cc1`, the GI50 in experiment [2] was 30.1 µM (inactive); in [3], 14.2 µM (inactive); in experiment [4], 22.3 µM (inactive); in [5], > 100 µM (inactive); in experiment [6], 29.3 µM (inactive); in experiment [7], 16.1 µM (inactive). Also, the GI50 was 20.2 µM (inactive) in experiment [8]; 17.7 µM (inactive) in experiment [9]; 19.4 µM (inactive) in [10]; 10.6 µM (inactive) in experiment [11]; 17.9 µM (inactive) in experiment [12]; 29 µM (inactive) in [13]. The GI50 is 16.6 µM (inactive) in experiment [14]; 5.71 µM (inactive) in experiment [15]; 37.3 µM (inactive) in experiment [16]; 18.5 µM (inactive) in [17]; 16.7 µM (inactive) in experiment [18]; 25.1 µM (inactive) in [19]. The GI50 in experiment [20] is 12.9 µM (inactive).

Turning to `Nc1ccc(Cn2ccc3c4c(N)nc(N)nc4ccc32)cc1`, the GI50 in experiment [1] is < 0.0252 µM (active); in experiment [2], < 0.01 µM (active); in experiment [3] it was 0.0119 µM (active); in experiment [4], 6.47 µM (inactive); in experiment [5] it was 0.0141 µM (active); in [6], < 0.01 µM (active). Besides, the GI50 in experiment [7] was < 0.01 µM (active); in experiment [8], 0.137 µM (active); in experiment [9] it was < 0.01 µM (active); in experiment [10], < 0.01 µM (active); in experiment [11], 0.242 µM (active); in [12], < 0.0127 µM (active). The GI50 is < 0.0184 µM (active) in [13]; 0.128 µM (active) in [14]; < 0.0207 µM (active) in experiment [15]; 0.3 µM (active) in experiment [16]; 0.804 µM (active) in experiment [17]; < 0.01 µM (active) in [18]. Further, the GI50 in experiment [20] was < 0.01 µM (active).

For `Nc1nc2[nH]c(=O)cnc2c(=O)[nH]1` [ISOXANTHOPTERIN], the GI50 in experiment [2], in experiment [3], in experiment [4], in experiment [5], in experiment [6] and in [7] was > 125 µM (inactive) throughout. Further, the GI50 in [8] was > 108 µM (inactive); in [9] it was > 125 µM (inactive); in [10] it was > 125 µM (inactive); in experiment [11] it was > 125 µM (inactive); in [12], > 125 µM (inactive); in [13], > 125 µM (inactive). Besides, the GI50 in experiment [14], in experiment [15], in experiment [16], in experiment [17], in experiment [18] and in [19] was > 125 µM (inactive) each time. The GI50 in experiment [20] was > 125 µM (inactive).

Take `O=NN1C(c2ccccc2)C2CCCC(C2=O)C1c1ccccc1` (stereo unspecified): the GI50 in experiment [2] is 34 µM (inactive); in experiment [3], 41.4 µM (inactive); in [4], 28.4 µM (inactive); in experiment [5] it was 27 µM (inactive); in experiment [6] it was 18.1 µM (inactive); in experiment [7] it was 40 µM (inactive). The GI50 in experiment [8] is 7.53 µM (inactive); in experiment [9], 19.7 µM (inactive); in [10], 22 µM (inactive); in experiment [11] it was 32.7 µM (inactive); in experiment [12], 37.7 µM (inactive); in experiment [13], 44.6 µM (inactive). Moreover, the GI50 in experiment [14] is 21.7 µM (inactive); in experiment [15] it was 26.2 µM (inactive); in [16], 42.6 µM (inactive); in experiment [17] it was 22.8 µM (inactive); in experiment [18], 29.3 µM (inactive); in experiment [19], 24 µM (inactive). Further, the GI50 in experiment [20] was 20.4 µM (inactive).

`Cn1c2ccccc2n2c(=O)c(-c3ccc(O)cc3)nnc12`: the GI50 was 40.2 µM (inactive) in experiment [1]; > 100 µM (inactive) in experiment [2]; 27.7 µM (inactive) in experiment [3]; 21.2 µM (inactive) in [4]; 42.4 µM (inactive) in [5]; > 100 µM (inactive) in [6]. Besides, the GI50 in experiment [7] was > 100 µM (inactive); in experiment [8], > 100 µM (inactive); in [9], > 100 µM (inactive); in [10], 87.3 µM (inactive); in [11], > 100 µM (inactive); in experiment [12], > 100 µM (inactive). The GI50 in experiment [13] is 35 µM (inactive); in experiment [14], > 100 µM (inactive); in experiment [15], > 100 µM (inactive); in experiment [16], 80.4 µM (inactive); in experiment [17] it was 25.8 µM (inactive); in experiment [18], 28.2 µM (inactive). Further, the GI50 in [19] was > 100 µM (inactive).

Consider `CCC(C)[C@@H](NC1=C(Cl)C(=O)c2c(O)ccc(O)c2C1=O)C(=O)OC` (stereo partly specified), for which the GI50 in [1] was 2.43 µM (inactive); in experiment [2], 3.89 µM (inactive); in experiment [3], 6.46 µM (inactive); in experiment [4], 9.23 µM (inactive); in experiment [5], 3.51 µM (inactive); in experiment [6], 3.01 µM (inactive). Moreover, the GI50 in experiment [7] is 3.95 µM (inactive); in experiment [8], 1.8 µM (inactive); in experiment [9], 2.07 µM (inactive); in experiment [10] it was 2.64 µM (inactive); in experiment [11] it was 2.52 µM (inactive); in [12] it was 3.15 µM (inactive). The GI50 in experiment [13] was 4.08 µM (inactive); in [15], 3.66 µM (inactive); in [16] it was > 10 µM (inactive); in experiment [17], 7.26 µM (inactive); in experiment [18] it was 3.78 µM (inactive); in experiment [19], 2.18 µM (inactive). Further, in [20], the GI50 was 3.37 µM (inactive).

Turning to `CO[C@@H]1C[C@H]2[C@@H]3CC[C@H]([C@H](C)CO)[C@@]3(C)CC[C@@H]2[C@@]2(C)CC[C@H]3C[C@]312`, the GI50 is 62.5 µM (inactive) in experiment [1]; 69 µM (inactive) in experiment [2]; 5.08 µM (inactive) in [3]; 12.5 µM (inactive) in [4]; > 100 µM (inactive) in experiment [5]; 20.7 µM (inactive) in experiment [6]. The GI50 was 84.7 µM (inactive) in [7]; > 100 µM (inactive) in [8]; 55.7 µM (inactive) in [9]; 26.7 µM (inactive) in [10]; 34.3 µM (inactive) in experiment [11]; 49 µM (inactive) in experiment [12]. Further, the GI50 in [13] was 45.7 µM (inactive); in experiment [14], 46.9 µM (inactive); in experiment [15], 53.7 µM (inactive); in experiment [16] it was 67.6 µM (inactive); in experiment [17] it was 89.9 µM (inactive); in [18], 27.6 µM (inactive). In experiment [19], the GI50 was 35.6 µM (inactive).

For `O=C1CS(=O)(=O)C(c2cccc(Oc3ccccc3)c2)N1c1ccccc1` (stereo unspecified), the GI50 is 17.8 µM (inactive) in experiment [1]; 35.1 µM (inactive) in experiment [2]; 20.5 µM (inactive) in experiment [3]; 16.4 µM (inactive) in experiment [4]; 36.7 µM (inactive) in [5]; 26.5 µM (inactive) in [6]. The GI50 was 20.5 µM (inactive) in experiment [8]; 25.1 µM (inactive) in experiment [9]; 18.7 µM (inactive) in experiment [10]; 22 µM (inactive) in experiment [11]; 27 µM (inactive) in experiment [12]; 21.3 µM (inactive) in experiment [13]. Further, the GI50 in experiment [14] is 26.2 µM (inactive); in experiment [15] it was 19.4 µM (inactive); in experiment [16] it was 43.3 µM (inactive); in experiment [17] it was 34.1 µM (inactive); in experiment [18] it was 16.6 µM (inactive); in experiment [19], 18.6 µM (inactive). In addition, the GI50 in experiment [20] was 12.4 µM (inactive).
